Measured values as given in patent US10420758B2, “Indolinyl-sulfonamide inhibitors of tankyrase and methods of use thereof” (The Board of Regents of the University of Texas System, priority 2015, dated 2019).

Key:
[1] = tested on: Tnks 1 and 2, Axin, β-catenin in SW480 cells; experiment: Western blot of Tnks, Axin and β-catenin levels in SW480 cells; format: cell-based; settings: SW480 cells (truncated Apc), FIG. 1A
Method: (FIG. 1A) Biochemical markers of Tnks inhibition associated with the Wnt/β-catenin pathway. […] (FIG. 1B) A biochemical screen to identify additional Tnks inhibitors from the IWR collection of Wnt pathway inhibitors. The effects of the IWR compounds on Tnks 1 and 2, β-catenin, and acetylated tubulin (Ac-Tub; loading control) expression levels were determined in SW480 cells by Western blot analysis.
For Western blot analysis cell lysates were generated with either PBS-NP40 buffer [phosphate-buffered saline (PBS)/1% NP40], or Tris-Triton X-100 buffer [50 mM Tris (pH 8), 200 mM NaCl, 1 mM EDTA, 1% Triton X-100, 10% glycerol, 1 mM DTT, 0.5 mM deoxycholate]. Both buffers were supplemented with protease inhibitor cocktail (Sigma). […] The lysates were cleared by centrifugation at 15,000 rpm for 10 min.

[2] = tested on: Axin2 in DLD-1 cells; experiment: Expression of Axin2 in DLD-1 cells; format: cell-based; settings: exposure for 2 h
From the text: Aberrant transcriptional induction of Wnt/β-catenin target genes is typically observed in CRC cells that harbor loss-of-function mutations in the APC tumor suppressor. […] See Chen et al. (2007), which is incorporated herein by reference.

[3] = tested on: Tnks enzymes; settings: cited from earlier work
[4] = target: T1, telomerase (Homo sapiens, UniProt O14746); experiment: Digital droplet telomerase extension (ddTRAP) assay; format: cell-based; settings: HeLa cells treated for 24 hrs, FIG. 4F
T1 construct: endogenous in cells; host or cells: HeLa
From the text: FIGS. 4A-4F show Tnks inhibitors induce telomeric stress in human cells independently of Wnt/β-catenin pathway inhibition. (FIG. 4A) Porcn inhibitors afford a Tnks-independent approach to disrupting Wnt/β-catenin signaling. Chemicals targeting the Wnt acyltransferase Porcn abrogate Wnt palmitoylation which in turn results in loss of activity of the Frizzled (Fzd) family of Wnt receptors. Fzd receptors directly induce activation of the cytoplasmic signaling molecule Dishevelled (Dvl) in a ligand-dependent manner, which in turn results in activation of β-catenin and transcription mediated by the TCF family of DNA binding proteins. […] The appearance of co-localized Terf2 and pH2A.X (an indicator of DNA damage at the telomere ends; Telomere Induced Foci or TIFs) was scored using indirect immunofluorescence in Hela cells (expressing wild-type Apc protein). (FIG. 4C) Quantification of results represented in “B”. Cells with >5 TIFs were scored as positive for telomeric damage (left bars). […]
The ddTRAP assay was performed as previously described (Ludlow, et al., 2014). […] Fluorescence was quantitated using a QX200 droplet reader (Bio-Rad) in the 6-Fam channel. Thresholds for quantitation were determined by comparison to a telomerase negative fibroblast cell line and no cell input negative control samples and untreated Hela cell positive control samples.

[5] = tested on: β-catenin activity in DLD-1 cells; experiment: Wnt/β-catenin specific luciferase reporter (SuperTopFlash) in DLD-1 cells; format: cell-based; settings: FIG. 2B
Method: Representative IWRs from each chemotype were evaluated for their ability to inhibit purified recombinant Tnks1 protein (Tnks1 […] protein). Parsylation of immobilized histone protein was determined by colorimetric detection of incorporated biotinylated NAD+ in 96 well format.
Luciferase Reporter Assays.
Assays were executed as described using a Dual Luciferase kit (Promega), and SuperTopFlash and control SV40-driven Renilla luciferase reporters (SV40-Ren luc) (Chen, et al., 2009).

[6] = target: T2, purified Tnks1 SAM-PARP protein (Homo sapiens, UniProt O95271); experiment: In vitro Tnks activity assay, histone parsylation (HT Universal Color PARP Assay Kit); format: biochemical; settings: parsylation of immobilized histone, colorimetric, FIG. 2A
T2 construct: purified Tnks1 SAM-PARP protein; provided by Herwig Schüler (gift, not a vendor)

[7] = tested on: SW403 cells; experiment: Cell growth of SW403 cells; format: cell-based; settings: FIG. 2C

T2 sequence (O95271 1030-1317 limits assumed): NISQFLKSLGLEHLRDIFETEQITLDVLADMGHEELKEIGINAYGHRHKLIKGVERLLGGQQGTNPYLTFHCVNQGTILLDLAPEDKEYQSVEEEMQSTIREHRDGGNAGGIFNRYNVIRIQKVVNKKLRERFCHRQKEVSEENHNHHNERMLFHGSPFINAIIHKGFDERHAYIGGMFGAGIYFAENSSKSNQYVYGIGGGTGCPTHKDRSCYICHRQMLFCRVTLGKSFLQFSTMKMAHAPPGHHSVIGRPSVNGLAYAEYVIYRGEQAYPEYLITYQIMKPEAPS
T1 sequence (O14746 whole entry): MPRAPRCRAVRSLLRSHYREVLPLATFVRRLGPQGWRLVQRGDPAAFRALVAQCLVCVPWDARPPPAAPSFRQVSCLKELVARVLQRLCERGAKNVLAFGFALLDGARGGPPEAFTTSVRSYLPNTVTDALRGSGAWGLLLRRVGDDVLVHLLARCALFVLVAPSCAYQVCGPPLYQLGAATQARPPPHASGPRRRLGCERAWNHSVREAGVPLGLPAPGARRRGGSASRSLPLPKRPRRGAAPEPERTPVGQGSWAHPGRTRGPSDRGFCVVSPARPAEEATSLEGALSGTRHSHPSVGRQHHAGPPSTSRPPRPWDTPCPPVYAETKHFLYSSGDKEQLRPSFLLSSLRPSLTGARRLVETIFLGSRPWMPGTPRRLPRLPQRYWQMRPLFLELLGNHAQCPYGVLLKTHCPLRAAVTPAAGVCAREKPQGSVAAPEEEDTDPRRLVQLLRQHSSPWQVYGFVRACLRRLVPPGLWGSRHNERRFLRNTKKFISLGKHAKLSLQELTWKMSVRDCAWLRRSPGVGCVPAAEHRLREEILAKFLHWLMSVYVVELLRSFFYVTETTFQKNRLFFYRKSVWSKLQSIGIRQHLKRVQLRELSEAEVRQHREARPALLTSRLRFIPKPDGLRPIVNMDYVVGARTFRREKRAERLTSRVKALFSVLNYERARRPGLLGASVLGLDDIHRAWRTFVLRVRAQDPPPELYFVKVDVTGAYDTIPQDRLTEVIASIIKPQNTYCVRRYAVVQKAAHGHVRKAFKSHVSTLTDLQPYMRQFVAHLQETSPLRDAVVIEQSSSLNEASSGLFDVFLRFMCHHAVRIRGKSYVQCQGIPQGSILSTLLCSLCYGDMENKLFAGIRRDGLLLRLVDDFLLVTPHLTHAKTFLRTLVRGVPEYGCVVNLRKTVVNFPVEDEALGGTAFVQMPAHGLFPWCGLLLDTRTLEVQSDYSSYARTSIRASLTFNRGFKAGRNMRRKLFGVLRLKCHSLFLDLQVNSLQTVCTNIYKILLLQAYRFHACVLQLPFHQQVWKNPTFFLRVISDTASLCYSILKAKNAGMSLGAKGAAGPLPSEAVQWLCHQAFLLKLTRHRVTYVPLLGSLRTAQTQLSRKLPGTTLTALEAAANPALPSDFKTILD
T1 sequence (O60832 whole entry partner): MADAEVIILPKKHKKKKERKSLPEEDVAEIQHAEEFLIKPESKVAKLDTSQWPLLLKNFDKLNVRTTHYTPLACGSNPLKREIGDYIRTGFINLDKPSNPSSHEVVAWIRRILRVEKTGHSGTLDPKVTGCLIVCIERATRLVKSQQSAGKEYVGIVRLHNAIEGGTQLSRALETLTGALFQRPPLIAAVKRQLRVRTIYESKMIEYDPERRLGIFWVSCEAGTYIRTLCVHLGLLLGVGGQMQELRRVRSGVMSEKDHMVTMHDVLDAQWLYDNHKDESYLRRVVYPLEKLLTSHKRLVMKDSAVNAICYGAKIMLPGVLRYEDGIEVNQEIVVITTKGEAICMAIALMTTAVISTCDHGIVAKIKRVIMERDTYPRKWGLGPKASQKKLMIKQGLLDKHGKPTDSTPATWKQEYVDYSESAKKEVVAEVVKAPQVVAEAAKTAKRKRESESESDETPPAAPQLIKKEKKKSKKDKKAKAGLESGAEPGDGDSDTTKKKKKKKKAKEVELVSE
T1 sequence (Q9NPE3 whole entry partner): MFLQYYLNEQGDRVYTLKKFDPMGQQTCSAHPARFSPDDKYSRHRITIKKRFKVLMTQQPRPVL
T1 sequence (Q9NX24 whole entry partner): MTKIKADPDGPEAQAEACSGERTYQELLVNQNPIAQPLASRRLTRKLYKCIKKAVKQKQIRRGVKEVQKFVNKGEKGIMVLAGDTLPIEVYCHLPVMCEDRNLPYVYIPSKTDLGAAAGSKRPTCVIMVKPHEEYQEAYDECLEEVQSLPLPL
T1 sequence (Q9NY12 whole entry partner): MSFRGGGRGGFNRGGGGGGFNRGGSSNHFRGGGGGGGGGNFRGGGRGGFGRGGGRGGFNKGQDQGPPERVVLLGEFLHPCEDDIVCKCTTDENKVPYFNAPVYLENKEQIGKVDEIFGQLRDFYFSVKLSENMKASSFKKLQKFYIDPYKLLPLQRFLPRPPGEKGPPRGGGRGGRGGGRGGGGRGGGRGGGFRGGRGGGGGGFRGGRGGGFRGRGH
T1 sequence (Q9BUR4 whole entry partner): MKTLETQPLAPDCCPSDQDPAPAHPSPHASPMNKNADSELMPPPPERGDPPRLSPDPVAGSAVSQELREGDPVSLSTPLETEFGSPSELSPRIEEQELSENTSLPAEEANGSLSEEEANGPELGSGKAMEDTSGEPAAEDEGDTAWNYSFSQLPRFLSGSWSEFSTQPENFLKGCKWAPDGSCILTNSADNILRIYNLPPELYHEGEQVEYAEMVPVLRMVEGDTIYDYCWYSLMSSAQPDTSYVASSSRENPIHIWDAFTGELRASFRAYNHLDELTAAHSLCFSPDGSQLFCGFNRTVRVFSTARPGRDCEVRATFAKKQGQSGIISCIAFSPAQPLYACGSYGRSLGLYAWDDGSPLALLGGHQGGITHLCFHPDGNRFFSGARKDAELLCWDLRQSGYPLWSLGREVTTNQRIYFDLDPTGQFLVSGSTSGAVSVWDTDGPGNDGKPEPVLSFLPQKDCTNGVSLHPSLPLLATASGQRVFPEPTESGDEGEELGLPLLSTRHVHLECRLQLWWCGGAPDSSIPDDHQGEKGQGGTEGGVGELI

O=C(Nc1cccc2cccnc12)c1ccc(N2C(=O)[C@@H]3[C@H](C2=O)[C@@H]2C=C[C@H]3C2)cc1 [IWR-1]
Tnks and Axin protein levels [1]: induce stabilization of both Tnks enzymes and Axin proteins | β-catenin protein level [1]: promote destruction of β-catenin | expression of Axin2 [2]: decrease in the expression of Axin2 | specificity for Tnks enzymes over several other PARPs compared to XAV-939 [3]: ~100 fold | telomerase activity [4]: direct inactivation of telomerase by Tnks inhibitors was ruled out

CCN(C(=O)C1CCN(S(=O)(=O)c2cc3c(cc2Br)CCN3C(C)=O)CC1)c1cccc(C)c1 [IWR-8]
β-catenin activity induced by loss of APC function [5]: inhibits β-catenin activity induced by loss of APC function | ability to inhibit purified recombinant Tnks1 protein [6]: directly target Tnks | cell growth in a cancer cell line with compromised APC function [7]: inhibits cell growth
